Series [1] is described as follows: Solubility in water and in usual solvents. The settings on record: qualitative statement.
Series [2] in a line: Presence of the active principle in tissues after intramuscular injection in the rat. In kind it is in vivo. Particulars: i.m., 20 mg/kg en équivalent acide oxolinique. As for the experimental part:
d/ Détermination de la présence du principe actif dans les tissus après injection par voie intramusculaire chez le rat
Dose administrée : 20 mg/kg en équivalent acide oxolinique TABLEAU VI

Series [3] can be described thus: Plasma levels after intramuscular injection in the dog. Further details: species or system chien. Particulars: in vivo; for concentration at 0.5 h / concentration at 1 h / concentration at 2 h / concentration at 4 h / concentration at 6 h / concentration at 12 h / concentration at 24 h: dog, im. As for the experimental part: a/ Détermination des taux plasmatiques après injection par voie intramusculaire chez le chien
Dose administrée : 15 mg/kg en équivalent acide oxolinique (Comparaison avec l'activité pharmacocinétique de l'acide oxolinique) TABLEAU III

Series [4] is described as follows: Plasma levels after intravenous injection in the dog. The settings on record: in vivo. Further details: species or system chien. As for the experimental part: b/ Détermination des taux plasmatiques après injection intraveineuse chez le chien
Dose administrée : 15 mg/kg en équivalent acide oxolinique TABLEAU IV

Series [5] is described as follows: Plasma levels after intramuscular injection in the rat. In kind it is in vivo. The protocol: c/ Détermination des taux plasmatiques après injection par voie intramusculaire chez le rat
Dose administrée : 20 mg/kg en équivalent acide oxolinique TABLEAU V

Series [6] in a line: Acute toxicity, lethal dose 50 in the mouse. Particulars: in vivo, souris, read-out: DL 50 (the source's name). As for the experimental part:
La toxicité des composés selon l'invention a également été étudiée par la mesure de la dose léthale 50 (DL 50) chez la souris et ils se sont révélés être satisfaisants sur ce plan. A titre d'exemple, on notera que pour le composé JL 93V, la DL 50 (souris; voie intraveineuse) est de 240 mg/kg et que la DL 50 (souris; voie orale) est de 1120 mg/kg.

Series [7] is described as follows: Hydrolysis kinetics at room temperature. In kind it is physicochemical. The text has this:
Ainsi par exemple, l'étude cinétique à température ambiante de l'hydrolyse du composé JL 93V (stable en milieu faiblement acide et en milieu neutre) montre qu'il y a libération d'environ 50 % du principe actif (acide oxolinique) après 24 heures d'hydrolyse en milieu hydroxyde de sodium 0,001 M et coupure immédiate de la liaison ester en milieu hydroxyde de sodium 0,1 M. Cette liaison ester, tout comme d'ailleurs la liaison thioester ou amide, apparaît donc comme étant suffisamment labile par hydrolyse pour libérer le principe actif dans l'organisme.

SMILES strings stand for the structures. Read-outs that look alike come from different tables or passages of the source.

As to `CCn1cc(C(=O)O)c(=O)c2cc3c(cc21)OCO3` [Acide oxolinique, acide oxolinique, reference compound], the “solubilité dans l'eau ou les solvants organiques habituellement utilisés en galénique” value in series [1] is “relativement peu soluble”. Besides, the “Présence dans les tissus (foie, poumons, reins, muscles)” value in series [2] (1 h), in series [2] (3 h), in series [2] (6 h) and in series [2] (24 h) was “nulle” throughout. Also, the concentration at 0.5 h in series [3] (chien, i.m., 15 mg/kg en équivalent acide oxolinique, 0,5 h, read-out: Taux plasmatiques) amounted to 6.06 µg/mL; in series [4] (chien, i.v., 15 mg/kg en équivalent acide oxolinique, 0,5 h, read-out: Taux plasmatiques), 36.8 µg/mL. Also, the concentration at 1 h came out at 6.55 µg/mL in series [3] (chien, i.m., 15 mg/kg en équivalent acide oxolinique, 1 h, read-out: Taux plasmatiques); 29.8 µg/mL in series [4] (chien, i.v., 15 mg/kg en équivalent acide oxolinique, 1 h, read-out: Taux plasmatiques); 0.785 µg/mL in series [5] (in vivo, im, 20 mg/kg en équivalent acide oxolinique, 1 h, read-out: Taux plasmatiques). Moreover, the concentration at 2 h in series [3] (chien, i.m., 15 mg/kg en équivalent acide oxolinique, 2 h, read-out: Taux plasmatiques) is 5.46 µg/mL; in series [4] (chien, i.v., 15 mg/kg en équivalent acide oxolinique, 2 h, read-out: Taux plasmatiques), 22.3 µg/mL. In series [3] (chien, i.m., 15 mg/kg en équivalent acide oxolinique, 4 h, read-out: Taux plasmatiques), the concentration at 4 h turned out to be 3.03 µg/mL. The concentration at 6 h was 2.47 µg/mL in series [3] (chien, i.m., 15 mg/kg en équivalent acide oxolinique, 6 h, read-out: Taux plasmatiques) and 8.89 µg/mL in series [4] (chien, i.v., 15 mg/kg en équivalent acide oxolinique, 6 h, read-out: Taux plasmatiques). Also, the concentration at 12 h in series [3] (chien, i.m., 15 mg/kg en équivalent acide oxolinique, 12 h, read-out: Taux plasmatiques) was 1.43 µg/mL. In addition, the concentration at 24 h in series [3] (chien, i.m., 15 mg/kg en équivalent acide oxolinique, 24 h, read-out: Taux plasmatiques) came to 0.98 µg/mL; in series [4] (chien, i.v., 15 mg/kg en équivalent acide oxolinique, 24 h, read-out: Taux plasmatiques), 0.15 µg/mL. The concentration at 8 h in series [4] (chien, i.v., 15 mg/kg en équivalent acide oxolinique, 8 h, read-out: Taux plasmatiques) is 5.65 µg/mL. For the same compound, the concentration at 10 h in series [4] (chien, i.v., 15 mg/kg en équivalent acide oxolinique, 10 h, read-out: Taux plasmatiques) turned out to be 3.59 µg/mL. The Taux plasmatiques entry in series [5] (i.m., 20 mg/kg en équivalent acide oxolinique, 6 h) was “nul”; in series [5] (i.m., 20 mg/kg en équivalent acide oxolinique, 24 h) it was “nul”. Also, the concentration at 3 h in series [5] (in vivo, im, 20 mg/kg en équivalent acide oxolinique, 3 h, read-out: Taux plasmatiques) came to 0.225 µg/mL.
With `CCOCCOCCOC(=O)c1cn(CC)c2cc3c(cc2c1=O)OCO3` [JL 93V], the LD50 in series [6] (iv, voie intraveineuse) is 240 mg/kg. Further, the LD50 in series [6] (po, voie orale) came out at 1120 mg/kg. In series [3] (15 mg/kg), this compound showed a concentration at 0.5 h of 7.25 µg/mL, a concentration at 1 h of 16.1 µg/mL, a concentration at 2 h of 15.6 µg/mL and a concentration at 4 h of 10.8 µg/mL. Besides, in series [3] (15 mg/kg), the concentration at 6 h is 6.08 µg/mL, the concentration at 12 h turned out to be 2.31 µg/mL, the concentration at 24 h was determined as 0.45 µg/mL and the “aire sous la courbe (taux en fonction du temps)” value is on record as “plus importante”. In series [4] (15 mg/kg), this compound had a concentration at 0.5 h of 33.6 µg/mL, a concentration at 1 h of 30.2 µg/mL, a concentration at 2 h of 23.4 µg/mL and a concentration at 6 h of 10.9 µg/mL. Besides, in series [4] (15 mg/kg), the concentration at 8 h turned out to be 8.23 µg/mL, the concentration at 10 h turned out to be 6.35 µg/mL and the concentration at 24 h stood at 1.19 µg/mL. Moreover, in series [5] (in vivo, 20 mg/kg), the Taux plasmatiques result was “nul” and the “aire sous la courbe” value is recorded as “plus importante”. Moreover, in series [5] (in vivo, im, 20 mg/kg), the concentration at 1 h turned out to be 15.7 µg/mL, the concentration at 3 h was 8.78 µg/mL and the concentration at 6 h was 3.42 µg/mL. Moreover, the degraded at 24 h in series [7] (0.001 m naoh, room temperature, after 24 heures of hydrolysis in hydroxyde de sodium 0,001 M, read-out: libération du principe actif (acide oxolinique)) is roughly 50%. The stabilité entry in series [7] (milieu faiblement acide and milieu neutre) is “stable”. In addition, in series [7] (room temperature, hydroxyde de sodium 0,1 M), the “coupure de la liaison ester” value is given as “immédiate”.

The values above are taken from patent EP0300107A1, “Ester, thioester and amide derivatives of oxolinic acid, process for their synthesis and their therapeutical use” (VETOQUINOL S.A., priority 1987, dated 1989).
